{"source": "patent US12102637B2", "about": "“Pharmaceutical formulations for treating endometriosis, uterine fibroids, polycystic ovary syndrome or adenomyosis” (AbbVie Inc., priority 2017, dated 2024)", "experiment": "Drug interaction studies: co-administered drug in the presence of elagolix", "details": "for direction of the change in AUC of concomitant drug: co-administered with ORILISSA (elagolix)", "key": {"[1]": {"details": "Ethinyl estradiol 35 mcg and triphasic norgestimate 0.18/0.215/0.25 mg once daily, elagolix 150 mg once daily, N 21"}, "[2]": {"details": "Digoxin 0.5 mg single dose, elagolix 200 mg twice daily × 10 days, N 11"}, "[3]": {"details": "Midazolam 2 mg single dose, elagolix 150 mg once daily × 13 days, N 11"}, "[4]": {"details": "Midazolam 2 mg single dose, elagolix 300 mg twice daily × 11 days, N 20"}, "[5]": {"details": "Norethindrone 0.35 mg once daily × 112 days, elagolix 150 mg once daily × 56 days, N 32"}, "[6]": {"details": "Rosuvastatin 20 mg once daily, elagolix 300 mg twice daily × 7 days, N 10"}}, "protocol": "Drug interaction studies were performed with elagolix and other drugs that are likely to be co-administered and with drugs commonly used as probes for pharmacokinetic interactions.", "data": [{"smiles": "C#C[C@]1(O)CC[C@H]2[C@@H]3CCC4=CC(=NO)CC[C@@H]4[C@H]3CC[C@@]21CC", "note": "(mixture of isomers) [Norelgestromin]", "values": [{"measurement": "AUC Ratio (with elagolix vs medication alone)", "setting": "[1]", "value": 0.85}, {"measurement": "Cmax Ratio (with elagolix vs medication alone)", "setting": "[1]", "value": 0.87}]}, {"smiles": "C#CC1(O)CC[C@H]2[C@@H]3CCC4=CC(=O)CC[C@@H]4[C@H]3CC[C@@]21CC", "note": "(mixture of isomers) [Norgestrel]", "values": [{"measurement": "AUC Ratio (with elagolix vs medication alone)", "setting": "[1]", "value": 0.92}, {"measurement": "Cmax Ratio (with elagolix vs medication alone)", "setting": "[1]", "value": 0.89}]}, {"smiles": "C[C@H]1O[C@@H](O[C@H]2[C@@H](O)C[C@H](O[C@H]3[C@@H](O)C[C@H](O[C@H]4CC[C@@]5(C)[C@H](CC[C@@H]6[C@@H]5C[C@@H](O)[C@]5(C)[C@@H](C7=CC(=O)OC7)CC[C@]65O)C4)O[C@@H]3C)O[C@@H]2C)C[C@H](O)[C@@H]1O", "note": "[Digoxin]", "values": [{"measurement": "AUC Ratio (with elagolix vs medication alone)", "setting": "[2]", "value": 1.26}, {"measurement": "Cmax Ratio (with elagolix vs medication alone)", "setting": "[2]", "value": 1.71}, {"measurement": "direction of the change in AUC of concomitant drug", "value": "↑ digoxin"}]}, {"smiles": "C#C[C@]1(O)CC[C@H]2[C@@H]3CCc4cc(O)ccc4[C@H]3CC[C@@]21C", "note": "[Ethinyl Estradiol]", "values": [{"measurement": "AUC Ratio (with elagolix vs medication alone)", "setting": "[1]", "value": 1.30}, {"measurement": "Cmax Ratio (with elagolix vs medication alone)", "setting": "[1]", "value": 1.15}]}, {"smiles": "Cc1ncc2n1-c1ccc(Cl)cc1C(c1ccccc1F)=NC2", "note": "[Midazolam]", "values": [{"measurement": "AUC Ratio (with elagolix vs medication alone)", "setting": "[3]", "value": 0.65}, {"measurement": "Cmax Ratio (with elagolix vs medication alone)", "setting": "[3]", "value": 0.81}, {"measurement": "AUC Ratio (with elagolix vs medication alone)", "setting": "[4]", "value": 0.46}, {"measurement": "Cmax Ratio (with elagolix vs medication alone)", "setting": "[4]", "value": 0.56}, {"measurement": "direction of the change in AUC of concomitant drug", "value": "↓ midazolam"}]}, {"smiles": "C#C[C@]1(O)CC[C@H]2[C@@H]3CCC4=CC(=O)CC[C@@H]4[C@H]3CC[C@@]21C", "note": "[Norethindrone]", "values": [{"measurement": "AUC Ratio (with elagolix vs medication alone)", "setting": "[5]", "value": 0.88}, {"measurement": "Cmax Ratio (with elagolix vs medication alone)", "setting": "[5]", "value": 0.95}]}, {"smiles": "CC(C)c1nc(N(C)S(C)(=O)=O)nc(-c2ccc(F)cc2)c1/C=C/[C@@H](O)C[C@@H](O)CC(=O)O", "note": "[Rosuvastatin]", "values": [{"measurement": "AUC Ratio (with elagolix vs medication alone)", "setting": "[6]", "value": 0.60}, {"measurement": "Cmax Ratio (with elagolix vs medication alone)", "setting": "[6]", "value": 0.99}, {"measurement": "direction of the change in AUC of concomitant drug", "value": "↓ rosuvastatin"}]}]}
